Data as given in ChEMBL document CHEMBL1158253, “Isolation and structure of hemibastadinols 1-3 from the Papua New Guinea marine sponge Ianthella basta” (1996).
The source made the active and inactive calls. The rule behind the calls is not given here.

What was measured:
[1] = system: Candida albicans; assay: Antimicrobial activity against Candida albicans ATCC 90028 up to 100 ug/disk after 42 hrs by disk susceptibility test; assay type: functional, organism-based
[2] = system: Staphylococcus aureus; assay: Antimicrobial activity against Staphylococcus aureus ATCC 29213 after 16 hrs by disk susceptibility test; assay type: functional
[3] = system: Neisseria gonorrhoeae; assay: Antimicrobial activity against Neisseria gonorrhoeae ATCC 49226 after 16 hrs by disk susceptibility test; assay type: functional
[4] = system: Cryptococcus neoformans; assay: Antimicrobial activity against Cryptococcus neoformans ATCC 90112 up to 100 ug/disk after 42 hrs by disk susceptibility test; assay type: functional, organism-based
[5] = system: Enterococcus faecalis; assay: Antimicrobial activity against Enterococcus faecalis ATCC 29212 after 16 hrs by disk susceptibility test; assay type: functional
[6] = system: Escherichia coli; assay: Antimicrobial activity against Escherichia coli ATCC 25922 up to 100 ug/disk after 16 hrs by disk susceptibility test; assay type: functional, organism-based

Structure (SMILES) | Activity [1] | MIC [2] | MIC [3] | Activity [4] | MIC [5] | Activity [6]
O=C(NCCc1ccc(O)c(Br)c1)/C(Cc1cc(Br)c(O)c(Oc2c(Br)cc(C/C(=N\O)C(=O)NCCc3ccc(O)c(Br)c3)cc2Br)c1)=N\O [BASTADIN 2] | inactive | 6.25 µg | 50 µg | inactive | 50 µg | 
O=C(NCCc1ccc(O)c(Br)c1)/C(Cc1cc(Br)c(O)c(Br)c1)=N\O [HEMIBASTADIN 2] | inactive | 3.12 µg | 3.12 µg | inactive |  | 
O=C(NCCc1ccc(O)c(Br)c1)/C(Cc1ccc(O)c(Br)c1)=N\O [HEMIBASTADIN 1] | inactive | 1.56 µg | 12.5 µg | inactive | 50 µg | 
NC(=O)C(=O)NCCc1ccc(O)c(Br)c1 | inactive |  | 10 µg | inactive |  | 
COc1ccc(C/C(=N/O)C(=O)NCCc2ccc(O)c(Br)c2)cc1Br | inactive | 6.25 µg | 6.25 µg | inactive |  | 
O=C1NCCc2cc(Br)c(O)c(c2)Oc2ccc(cc2Br)CCNC(=O)/C(=N\O)Cc2cc(Br)c(O)c(c2)Oc2c(Br)cc(cc2Br)C/C1=N/O [BASTADIN 5] | inactive | 12.5 µg | 50 µg | inactive | 50 µg | 
O=C(NCCc1ccc(O)c(Br)c1)[C@@H](O)Cc1ccc(O)c(Br)c1 [HEMIBASTADINOL 1] | inactive |  | 50 µg | inactive | 50 µg | 
O=C(NCCc1ccc(O)c(Br)c1)/C(Cc1ccc(Oc2cc(C/C(=N/O)C(=O)NCCc3ccc(O)c(Br)c3)cc(Br)c2O)c(Br)c1)=N\O [BASTADIN1] | inactive | 6.25 µg | 50 µg | inactive | 12.5 µg | inactive
O=C1NCCc2cc(Br)c(O)c(c2)Oc2c(Br)cc(cc2Br)CCNC(=O)/C(=N/O)Cc2cc(Br)c(O)c(c2)Oc2c(Br)cc(cc2Br)C/C1=N\O [BASTADIN 6] | inactive | 6.25 µg |  | inactive | 12.5 µg | 
O=C(NCCc1ccc(O)c(Br)c1)/C(Cc1cc(Br)c(O)c(-c2cc(C/C(=N/O)C(=O)NCCc3ccc(O)c(Br)c3)cc(Br)c2O)c1)=N\O [BASTADIN 3] | inactive | 1.56 µg | 0.78 µg | inactive | 3.12 µg | 
O=C1N/C=C/c2ccc(c(Br)c2)Oc2cc(cc(Br)c2O)CCNC(=O)/C(=N/O)Cc2cc(Br)c(c(Br)c2)Oc2cc(cc(Br)c2O)C/C1=N\O [BASTADIN 4] | inactive | 12.5 µg | 12.5 µg | inactive | 50 µg | 
